Values quoted from earlier work in US6555530B1, “Use of estrogens and delta-gonadien-21-Ol-3,20-diones for treating insulin dependent and non-insulin dependent diabetes” (Novo Nordisk A/S, priority 1999, dated 2003).

Experiments:
[1] = test system: streptozotocin diabetic rats; settings: implanted testosterone
[2] = test system: intact or ovarectomized female rats; settings: correlated to morphological changes in muscle

SMILES: C[C@]12CC[C@H]3[C@@H](CCC4=CC(=O)CC[C@@]43C)[C@@H]1CC[C@@H]2O [Testosterone]
- glycemic control by residual insulin [1]: antagonized the ability of residual insulin to maintain glycemic control
- insulin resistance [2]: marked insulin resistance
